The target in assay [1] is T1, Type-1 angiotensin II receptor (Bos taurus, UniProt P25104).
T1 sequence (P25104 whole entry): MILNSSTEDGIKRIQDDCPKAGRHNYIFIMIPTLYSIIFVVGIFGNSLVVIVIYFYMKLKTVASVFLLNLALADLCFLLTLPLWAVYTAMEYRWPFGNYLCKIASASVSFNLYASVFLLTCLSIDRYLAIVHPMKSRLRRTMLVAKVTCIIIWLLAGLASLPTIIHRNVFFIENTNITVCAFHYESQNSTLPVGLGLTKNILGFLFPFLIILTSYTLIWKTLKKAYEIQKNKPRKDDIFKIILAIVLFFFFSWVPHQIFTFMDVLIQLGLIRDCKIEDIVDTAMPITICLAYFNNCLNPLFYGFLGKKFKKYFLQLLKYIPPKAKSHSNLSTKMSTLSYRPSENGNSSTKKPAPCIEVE
The experiment in a line: Inhibition of [125l]-All binding to bovine adrenal cortex. Type of assay: tissue-based.

Assay [2] relates to Rattus norvegicus. The assay can be described thus: Compound tested for in vivo inhibitory dose against All-induced pressor response in normotensive, conscious rats. The format is functional. Particulars: read-out: ID50 (the source's name).

Usually IC50 stands for the concentration that gives 50% inhibition. Read a high IC50 as a need for much substance.

In turn, `CCCCc1nc(Cl)c(CO)n1Cc1ccc(-c2ccccc2C(=O)O)cc1` displayed a 50% inhibitory concentration (IC50) in assay [1] of 490 nM. In assay [2], the ED50 was determined as 2.3 mg/kg.
The molecule `CCCCc1nc(CO)c(C(=O)O)n1Cc1ccc(-c2ccccc2C(=O)O)cc1` came in with a 50% inhibitory concentration (IC50) in assay [1] of 65 nM. Moreover, the ED50 in assay [2] worked out at 0.22 mg/kg.
Taken in the same sequence, the figures for `CCCc1nc(C(=O)O)c(C(=O)O)n1Cc1ccc(-c2ccccc2C(=O)O)cc1` were 320 nM and 0.67 mg/kg.
On to `CCCc1nc(CO)c(C(=O)O)n1Cc1ccc(-c2ccccc2C(=O)O)cc1`, for which the IC50 in assay [1] is 58 nM. Moreover, the ED50 in assay [2] was determined as 0.069 mg/kg.
Taken in the same sequence, the figures for `CCCc1nc(CO)c(C(=O)OCC)n1Cc1ccc(-c2ccccc2C(=O)O)cc1` were 840 nM and 1.5 mg/kg.
For the molecule `CCCCc1nc(Cl)c(C(=O)O)n1Cc1ccc(-c2ccccc2C(=O)O)cc1`, the ED50 in assay [2] is 0.21 mg/kg.
The molecule `CCc1nc(CO)c(C(=O)O)n1Cc1ccc(-c2ccccc2C(=O)O)cc1` gave a concentration for half-maximal inhibition (IC50) in assay [1] of 150 nM. The ED50 in assay [2] stood at 0.27 mg/kg.
The like results for `CCCc1cc(COC)c(C(=O)O)n1Cc1ccc(-c2ccccc2C(=O)O)cc1` were, in that order, 4500 nM and 4.2 mg/kg.
The like results for `CCCc1nc(CO)c(CO)n1Cc1ccc(-c2ccccc2C(=O)O)cc1` were, in that order, 2700 nM and 2.1 mg/kg.
In the case of `CCCc1nc(C(=O)O)c(CO)n1Cc1ccc(-c2ccccc2C(=O)O)cc1`, in assay [2], the ED50 stood at 8.8 mg/kg.
In the case of `CCCc1cc(C(=O)O)c(CO)n1Cc1ccc(-c2ccccc2C(=O)O)cc1`, the IC50 in assay [1] amounted to 2100 nM. Further, the ED50 in assay [2] is 5.9 mg/kg.
On to `CCCCc1nc(Cl)c(C(=O)O)n1Cc1ccc(-c2ccccc2-c2nn[nH]n2)cc1` [CARBOXYLIC ACID METABOLITE], for which the concentration for half-maximal inhibition (IC50) in assay [1] worked out at 22 nM. In addition, the ED50 in assay [2] was determined as 0.1 mg/kg.
As for `CCCCc1nc(Cl)c(CO)n1Cc1ccc(-c2ccccc2-c2nnn[nH]2)cc1` [LOSARTAN], the IC50 in assay [1] was determined as 120 nM. The ED50 in assay [2] was found to be 0.3 mg/kg.

The record behind these values is ChEMBL document CHEMBL1127869, “Angiotensin II receptor antagonists: imidazoles and pyrroles bearing hydroxymethyl and carboxy substituents” (Bioorg Med Chem Lett, 1994).
